The source of these data is ChEMBL document CHEMBL1201862, “PubChem BioAssay data set” (2004).

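Cultured in 96-well plates, cells were exposed to test compound for 48 hours across five concentrations. The concentration for 50% growth inhibition is given as GI50.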 The source made the active and inactive calls. Cut-off read from the data, not from the text of the source: active = GI50 up to about 1.1 µM and inactive = higher.

Common to all, as to experiment: inhibition of tumour cell growth, NCI panel, 48 h
Assay [1] has as its system HL-60.
Assay [2] deals with SF-295.
The test system of assay [3] is OVCAR-8.
For assay [4], the system named is A549.
For assay [5], the system named is IGROV-1.
The subject of assay [6] is A498.
The subject of assay [7] is MDA-N.
Assay [8] has as its system SW-620.
Assay [9] has as its system U-251.
The test system of assay [10] is NCI-H522.
The subject of assay [11] is COLO 205.
For assay [12], the system named is CCRF-CEM.
The test system of assay [13] is NCI-H460.
In assay [14] the test system is TK-10.
Assay [15] deals with OVCAR-3.
For assay [16], the system named is Malme-3M.
Assay [17] has as its system SK-OV-3.
Assay [18] deals with HCT-15.
Assay [19] relates to SK-MEL-5.
Assay [20] relates to HCC 2998.

For `COc1ccnc2c1C(=O)c1nc3ccccc3c3ccnc-2c13`, the GI50 was 0.06 µM (active) in assay [1]; 0.169 µM (active) in [2]; 0.0512 µM (active) in assay [3]; 0.142 µM (active) in assay [4]; 0.177 µM (active) in assay [5]; 0.0859 µM (active) in [6]. The GI50 in assay [7] was 0.25 µM (active); in [8], 0.0809 µM (active); in assay [9], 0.204 µM (active); in assay [10] it was 0.0375 µM (active); in assay [11] it was 0.0796 µM (active); in assay [12], 0.295 µM (active). In addition, the GI50 in [13] is 0.0232 µM (active); in assay [14], 0.324 µM (active); in [15], 0.0353 µM (active); in assay [16], 0.262 µM (active); in assay [17], 0.167 µM (active); in assay [18] it was below 0.01 µM. Moreover, the GI50 in assay [19] was 0.0317 µM (active); in assay [20], 0.0687 µM (active).

`Cc1cc2c(cc1-c1cc3c(cc1C)C(C(C)C)=C(O)C(=O)/C3=C\Nc1cccc3c(N)cccc13)/C(=C/Nc1cccc3c(N)cccc13)C(=O)C(O)=C2C(C)C`: the GI50 in assay [1] was 33.8 µM (inactive); in [2] it was > 100 µM (inactive); in [3] it was > 100 µM (inactive); in assay [4] it was 59.4 µM (inactive); in [5], > 100 µM (inactive); in [6] it was > 100 µM (inactive). The GI50 in assay [7] is > 100 µM (inactive); in [8] it was > 100 µM (inactive); in [9], 49.1 µM (inactive); in assay [10], > 100 µM (inactive); in assay [11], > 100 µM (inactive); in [12], 39.2 µM (inactive). Besides, the GI50 in assay [13] was > 100 µM (inactive); in assay [14] it was > 100 µM (inactive); in assay [15], > 100 µM (inactive); in [16], > 100 µM (inactive); in assay [17], > 100 µM (inactive); in assay [18], above 100 µM. For the same compound, the GI50 in assay [19] and in [20] was > 100 µM (inactive) in each case.

For the compound `COc1ccc(/C=C\c2cc(OC)c(OC)c(OC)c2)cc1OCC(=O)O`, the GI50 is 2.84 µM (inactive) in assay [1]; 12.7 µM (inactive) in assay [2]; 5.64 µM (inactive) in [3]; 24.8 µM (inactive) in assay [4]; 46.8 µM (inactive) in assay [5]; 31.1 µM (inactive) in [6]. Moreover, the GI50 in assay [7] is 2.15 µM (inactive); in assay [8] it was 3.78 µM (inactive); in assay [9], 5.96 µM (inactive); in assay [10], 3.36 µM (inactive); in [11] it was > 100 µM (inactive); in assay [12], 4.68 µM (inactive). Further, the GI50 is 4.43 µM (inactive) in assay [13]; > 97.3 µM (inactive) in assay [14]; 2.69 µM (inactive) in assay [15]; 4.78 µM (inactive) in assay [16]; 29 µM (inactive) in assay [17]; 9.62 µM in assay [18]. In addition, the GI50 in [19] is 4.45 µM (inactive); in [20] it was 88.9 µM (inactive).

On to `Cn1c(=O)c2ccccc2[n+]2c(-c3cccc([N+](=O)[O-])c3)csc12`, for which the GI50 is 23 µM (inactive) in assay [1]; 44.8 µM (inactive) in assay [2]; 18 µM (inactive) in assay [3]; 91.4 µM (inactive) in assay [4]; 68.1 µM (inactive) in assay [5]; 58.9 µM (inactive) in assay [6]. For the same compound, the GI50 is 76.6 µM (inactive) in [7]; > 100 µM (inactive) in assay [8]; 32.6 µM (inactive) in assay [9]; 38 µM (inactive) in assay [10]; > 100 µM (inactive) in assay [11]; 32.6 µM (inactive) in [12]. The GI50 was 36.7 µM (inactive) in assay [13]; 36.4 µM (inactive) in [14]; 39.4 µM (inactive) in [15]; > 100 µM (inactive) in assay [16]; 73.6 µM (inactive) in assay [17]; 59.7 µM (inactive) in assay [19]. Also, the GI50 in [20] is > 100 µM (inactive).

On to `C/C=C(/C)C(=O)O[C@H](C[C@@H](C)[C@H]1CC(c2ccoc2)OC1=O)[C@@]1(C)C(=O)CCC2O[C@]21C` (stereo partly drawn), for which the GI50 in assay [1], in assay [2], in [3], in [4], in assay [5] and in [6] was > 100 µM (inactive) each time. Further, the GI50 in [7], in assay [8], in assay [9], in [10], in assay [11] and in [12] was > 100 µM (inactive) throughout. The GI50 in assay [13] is > 100 µM (inactive); in assay [14], > 100 µM (inactive); in [15], > 100 µM (inactive); in assay [16], > 100 µM (inactive); in assay [17], > 100 µM (inactive); in assay [18], above 100 µM. For the same compound, the GI50 in [19] and in [20] was > 100 µM (inactive) in each case.

Take `CCOC(=O)C(C(=O)OCC)=C1NC2(c3ccccc3Nc3ccc(C)cc32)C(C#N)S1` (stereo not drawn): the GI50 in assay [1] is 13.1 µM (inactive); in assay [2], 9.59 µM (inactive); in assay [3], 8.61 µM (inactive); in assay [4], 3.01 µM (inactive); in assay [5], 7.36 µM (inactive); in [6], 10.3 µM (inactive). Moreover, the GI50 is 10.6 µM (inactive) in [7]; 6.59 µM (inactive) in assay [8]; 5.57 µM (inactive) in [9]; 11.2 µM (inactive) in assay [10]; 4.04 µM (inactive) in assay [11]; 4.27 µM (inactive) in [12]. The GI50 is 3.27 µM (inactive) in assay [13]; 8.47 µM (inactive) in [14]; 3.39 µM (inactive) in assay [15]; 15 µM (inactive) in [16]; 13.4 µM (inactive) in [17]; 6 µM in assay [18]. In addition, the GI50 in assay [19] was 7.73 µM (inactive); in [20] it was 3.57 µM (inactive).

Regarding `COc1c2cc([N+](=O)[O-])cc1CNC(=O)CN1CCOCCOCCN(CCOCCOCC1)CC(=O)NC2`, the GI50 in assay [1], in assay [2], in assay [3], in [4], in assay [5] and in assay [6] was > 100 µM (inactive) throughout. In addition, the GI50 in assay [7], in assay [8], in assay [9], in assay [10], in assay [11] and in assay [12] was > 100 µM (inactive) each time. For the same compound, the GI50 in [13] is > 100 µM (inactive); in assay [14], > 100 µM (inactive); in assay [15] it was > 100 µM (inactive); in [16] it was > 100 µM (inactive); in assay [17], > 100 µM (inactive); in [18], above 100 µM. Further, the GI50 in assay [19] and in assay [20] was > 100 µM (inactive) in each case.

Consider `Cc1cc(Cl)ccc1Nc1nc2c(s1)C(=O)c1ccccc1C2=O`, for which the GI50 was 0.621 µM (active) in [1]; 9.12 µM (inactive) in assay [2]; 2.88 µM (inactive) in assay [3]; 4.59 µM (inactive) in assay [4]; 4.51 µM (inactive) in assay [5]; 22.2 µM (inactive) in assay [6]. Besides, the GI50 in [7] was 0.604 µM (active); in [8], 1.94 µM (inactive); in [9], 3.28 µM (inactive); in assay [10], 1.99 µM (inactive); in assay [11], 4.33 µM (inactive); in [12], 2.18 µM (inactive). The GI50 is 3.32 µM (inactive) in assay [13]; 16.9 µM (inactive) in assay [14]; 1.43 µM (inactive) in assay [15]; 1.45 µM (inactive) in assay [16]; 8.49 µM (inactive) in [17]; 1.85 µM in [18]. Besides, the values for the GI50 in [19] and in [20] were 1.82 µM (inactive) and 6.34 µM (inactive), respectively.

Consider `Cc1c(O)c(OC2OC(CO)C(O)C(O)C2O)cc2c1C=C[C@@H]1[C@@]2(C)C(=O)C[C@]2(C)[C@@H]([C@@](C)(O)C(=O)CCC(C)(C)O)[C@H](O)C[C@@]12C` (stereo partly drawn), for which the GI50 in assay [1] is 41.5 µM (inactive); in [2] it was 17.1 µM (inactive); in assay [3] it was 33.3 µM (inactive); in assay [4] it was 26.7 µM (inactive); in [5], 19.7 µM (inactive); in [6], 19.5 µM (inactive). Besides, the GI50 is 27.9 µM (inactive) in assay [7]; 29 µM (inactive) in [8]; 20.7 µM (inactive) in assay [9]; 24.6 µM (inactive) in assay [10]; 35.5 µM (inactive) in assay [11]; 37.3 µM (inactive) in [12]. The GI50 is 20.2 µM (inactive) in assay [13]; 18.1 µM (inactive) in assay [14]; 22.6 µM (inactive) in assay [15]; 24 µM (inactive) in [16]; 15.7 µM (inactive) in assay [17]; 25.9 µM in assay [18]. Further, the values for the GI50 in assay [19] and in [20] were 23 µM (inactive) and 20.5 µM (inactive), respectively.

`Oc1cc(O)c2c(c1)O[C@H](c1cc(O)c(O)c(O)c1)[C@@H](O)C2` [GALLOCATECHIN]: the GI50 in [1] is 22.2 µM (inactive); in assay [2], 24.4 µM (inactive); in assay [3], 16.2 µM (inactive); in assay [4], 40.5 µM (inactive); in assay [5] it was 18.8 µM (inactive); in assay [6], > 100 µM (inactive). The GI50 in assay [7] was 21.1 µM (inactive); in assay [8], 17.3 µM (inactive); in assay [9] it was 19.7 µM (inactive); in assay [10], 17.5 µM (inactive); in assay [11] it was 19.3 µM (inactive); in assay [12], 19.5 µM (inactive). Also, the GI50 in assay [13] was 19.2 µM (inactive); in assay [15] it was 21.8 µM (inactive); in [16] it was > 100 µM (inactive); in assay [17], 28.1 µM (inactive); in [18] it was 40 µM; in [19], 19.1 µM (inactive). In addition, the GI50 in assay [20] is > 10 µM (inactive).
